The structures appear in SMILES notation.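 Growth conditions: 96-well plates. Treatment: test compound, 48 hours, 5 concentrations. Analysis: linear interpolation between bracketing concentrations; unreached endpoints set to highest concentration. GI50 is the concentration that inhibits growth by half.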 Active and inactive are the calls of the source. Rule as the data show it: active = GI50 up to about 1.1 µM and inactive = higher.

Test systems include DMS-114; HCT-116; HCT-15; HL-60; KM12; NCI-H23; NCI/ADR-RES; OVCAR-5; OVCAR-8; RXF 393; SF-295; SF-539; SK-MEL-28; SK-MEL-2; SNB-78; ACHN.
What all share (test): NCI tumour cell line growth inhibition, 48 h

As to `CN(C)CCNC(=O)c1cccc2c1C(=O)c1ccccc1C2=O`, the GI50 with DMS-114 is 15.7 µM (inactive); in the assay on HCT-116 it was 25.1 µM (inactive); in the assay on HCT-15, 30.7 µM; with HL-60, 20.6 µM (inactive); in the assay with KM12, > 58.1 µM (inactive); in the assay with NCI-H23, 22 µM (inactive). The GI50 is 27.4 µM (inactive) in the assay with NCI/ADR-RES; 61.5 µM (inactive) in the assay with OVCAR-5; 29.4 µM (inactive) with OVCAR-8; 55 µM (inactive) in the assay on RXF 393; 33.7 µM (inactive) in the assay with SF-295; 40.6 µM (inactive) in the assay with SF-539. For the same molecule, the GI50 in the assay with SK-MEL-28 is 45.3 µM (inactive); in the assay with SK-MEL-2 it was > 37.3 µM (inactive); with SNB-78, 24.9 µM (inactive).
As for `CCOC(C)OC1CC(n2cc(C)c(=O)[nH]c2=O)OC1CO` (stereo not given), the GI50 is > 100 µM (inactive) in the assay with ACHN; > 100 µM (inactive) in the assay with DMS-114; > 100 µM (inactive) in the assay with HCT-116; greater than 100 µM in the assay on HCT-15; > 100 µM (inactive) in the assay on HL-60; > 100 µM (inactive) in the assay on KM12. Moreover, the GI50 in the assay with NCI-H23, with OVCAR-5, in the assay with OVCAR-8, in the assay with RXF 393, in the assay with SF-295 and in the assay with SF-539 was > 100 µM (inactive) in each case. Also, the GI50 in the assay with SK-MEL-28, with SK-MEL-2 and with SNB-78 was > 100 µM (inactive) in each case.
Consider `CC1=CC2c3cccc4[nH]cc(c34)CC2N(C)C1` (stereo not given), for which the GI50 in the assay on DMS-114 was 51.2 µM (inactive); with HCT-116, > 100 µM (inactive); with HCT-15, greater than 100 µM; in the assay with HL-60, 31.6 µM (inactive); with KM12 it was > 100 µM (inactive); with NCI-H23, > 100 µM (inactive). Further, the GI50 in the assay on NCI/ADR-RES is > 100 µM (inactive); in the assay with OVCAR-5, > 100 µM (inactive); in the assay on OVCAR-8, > 100 µM (inactive); in the assay on RXF 393, > 100 µM (inactive); in the assay on SF-295, 53.3 µM (inactive); with SF-539, > 100 µM (inactive). The GI50 in the assay with SK-MEL-28, in the assay with SK-MEL-2 and with SNB-78 was > 100 µM (inactive) throughout.
For `COc1cc([C@@H]2c3cc4c(c(O[C@@H]5O[C@H]6CO[C@@H](C)O[C@H]6[C@H](O)[C@@H]5O)c3C[C@H]3COC(=O)[C@@H]32)OCO4)cc(OC)c1O`, the GI50 in the assay on DMS-114 was 3.79 µM (inactive); in the assay on HCT-116, 6.78 µM (inactive); in the assay with HCT-15 it was 14.6 µM; in the assay on HL-60, 4.41 µM (inactive); in the assay on KM12 it was 8.75 µM (inactive); in the assay with NCI-H23 it was 15.1 µM (inactive). Moreover, the GI50 was 4.02 µM (inactive) with NCI/ADR-RES; 97.1 µM (inactive) in the assay with OVCAR-5; 6.64 µM (inactive) with OVCAR-8; 3.64 µM (inactive) with RXF 393; 3.48 µM (inactive) in the assay with SF-295; 2.81 µM (inactive) in the assay with SF-539. Also, the figures for the GI50 with SK-MEL-28, with SK-MEL-2 and with SNB-78 were 5.81 µM (inactive), 27.3 µM (inactive) and 6.03 µM (inactive), respectively.
For the molecule `CC1=C[C@]2(CC(C)C3C(CC4(C)C5CCC6C(C)(C)C(=O)CC[C@@]67C[C@@]57CC[C@]34C)O2)OC1=O` (stereo not given in full), the GI50 in the assay on ACHN is 24.6 µM (inactive); in the assay with DMS-114, 3.81 µM (inactive); with HCT-116, 3.33 µM (inactive); in the assay on HCT-15 it was 7.64 µM; in the assay with HL-60, 0.968 µM (active); in the assay with KM12, 18.9 µM (inactive). For the same molecule, the GI50 with NCI-H23 is 7.64 µM (inactive); in the assay with OVCAR-5, 2.21 µM (inactive); in the assay on OVCAR-8 it was 25.2 µM (inactive); in the assay with RXF 393 it was 5.11 µM (inactive); in the assay with SF-295, 25.3 µM (inactive); in the assay on SF-539, 13.8 µM (inactive). The values for the GI50 in the assay on SK-MEL-28, in the assay on SK-MEL-2 and in the assay on SNB-78 were 18.6 µM (inactive), 34.4 µM (inactive) and 23.2 µM (inactive), respectively.

For the origin of these results see ChEMBL document CHEMBL1201862, “PubChem BioAssay data set” (2004).
